Reference: US20160166577A1, “TREATMENT OF PULMONARY FIBROSIS USING AN INHIBITOR OF CBP/CATENIN” (PRISM Pharma Co., Ltd., priority 2012, published 2016)

What was measured:
[1] = test system: lung epithelial cell line LA-4; test: TGF-β-induced epithelial-to-mesenchymal transition (EMT) in LA-4 cells; format: cell-based, murine
Protocol: In Example 4, the murine lung epithelial cell line, LA-4, available from the American Type Culture Collection (ATCC; Manassas, Va.), was treated with TGF-β (5 ng/ml) to induce epithelial-to-mesenchymal transition (EMT), a marker for fibrosis (J Clin Invest. 119:1420-1428, 2009). TGF-β treated cells were treated with no or with increasing concentrations (0.01 μM, 0.05 μM, 0.1 μM, or 0.5 μM) of Compound C. Compound C, (6S,9S,9aS)—N-benzyl-6-(4-hydroxybenzyl)-2,9-dimethyl-4,7-dioxo-8-(quinolin-8-ylmethyl)octahydro-1H-pyrazino[2,1-c][1,2,4]triazine-1-carboxamide.

[2] = test system: bleomycin-induced pulmonary fibrosis; test: Bleomycin (BLM)-induced pulmonary fibrosis in mice; format: in vivo, C57BL/6 mice; settings: for antifibrotic effect in six-week course of BLM-induced fibrosis: Example 3, 5 mg/kg/day over weeks 4-6, FIG. 4
Protocol: C57BL/6 mice received subcutaneous implants of an ALZET mini-osmotic pump (Durect Corp., California) that released BLM continuously (Example 1, […]; Example 2, 120 U/kg/mouse/day) for seven days (Day 1-Day 7), to induce lung fibrosis (Lab Invest. 50:487-488, 1984; Am. J. Resp. Cell Mol. Biol. 45:489-497, 2011). Bleomycin induces epithelial injury, causing increased pulmonary inflammation from Days 1-21, peaking at about Day 10 before subsiding. Fibrosis begins at about Day 8 and gradually increases until Day 28.
BLM mice treated with test compound received a second subcutaneous ALZET mini-osmotic pump (Durect Corp., California) that released Compound A continuously. Compound A, 4-(((6S,9S,9aS)-1-(benzylcarbamoyl)-2,9-dimethyl-4,7-dioxo-8-(quinolin-8-ylmethyl)octahydro-1H-pyrazino[2,1-c][1,2,4]triazin-6-yl)methyl)phenyl dihydrogen phosphate.
Ashcroft score (J. Clin. Pathol. 41:467-470, 1988) was calculated from tissue sections of right lung stained by H&E. Left lung homogenates were analyzed for soluble collagen content using SIRCOL Collagen Assay kit (Biocolor Ltd., Carrickfergus, UK).
In Example 1, Compound A was administered 5 mg/kg/day over days 15-28.
In Example 2, Compound A was administered 1 mg/kg/day over Days 1-28 (“whole”), Days 1-14 (“early”) or Days 15-28 (“late”). […] Bleo, bleomycin treatment alone; Bleo+Cmpd A whole, bleomycin plus Compound A administered throughout 4 week period; Bleo+early 2w, bleomycin plus Compound A administered over weeks 1-2; Bleo+late 2w, bleomycin plus Compound A administered over weeks 3-4.
In Example 3, a six-week rather than four-week course of BLM-induced fibrosis was studied. In this example, either Compound A (5 mg/kg/day) or ICG-001 (5 mg/kg/day), another β-catenin inhibitor, was administered to BLM-treated mice over weeks 4-6.

[3] = test system: bleomycin-induced lung fibrosis; settings: cited from earlier work
[4] = target: β-catenin/CBP interaction (Homo sapiens, UniProt Q92793); settings: cited from earlier work
Chain of β-catenin/CBP interaction (Q92793 whole entry): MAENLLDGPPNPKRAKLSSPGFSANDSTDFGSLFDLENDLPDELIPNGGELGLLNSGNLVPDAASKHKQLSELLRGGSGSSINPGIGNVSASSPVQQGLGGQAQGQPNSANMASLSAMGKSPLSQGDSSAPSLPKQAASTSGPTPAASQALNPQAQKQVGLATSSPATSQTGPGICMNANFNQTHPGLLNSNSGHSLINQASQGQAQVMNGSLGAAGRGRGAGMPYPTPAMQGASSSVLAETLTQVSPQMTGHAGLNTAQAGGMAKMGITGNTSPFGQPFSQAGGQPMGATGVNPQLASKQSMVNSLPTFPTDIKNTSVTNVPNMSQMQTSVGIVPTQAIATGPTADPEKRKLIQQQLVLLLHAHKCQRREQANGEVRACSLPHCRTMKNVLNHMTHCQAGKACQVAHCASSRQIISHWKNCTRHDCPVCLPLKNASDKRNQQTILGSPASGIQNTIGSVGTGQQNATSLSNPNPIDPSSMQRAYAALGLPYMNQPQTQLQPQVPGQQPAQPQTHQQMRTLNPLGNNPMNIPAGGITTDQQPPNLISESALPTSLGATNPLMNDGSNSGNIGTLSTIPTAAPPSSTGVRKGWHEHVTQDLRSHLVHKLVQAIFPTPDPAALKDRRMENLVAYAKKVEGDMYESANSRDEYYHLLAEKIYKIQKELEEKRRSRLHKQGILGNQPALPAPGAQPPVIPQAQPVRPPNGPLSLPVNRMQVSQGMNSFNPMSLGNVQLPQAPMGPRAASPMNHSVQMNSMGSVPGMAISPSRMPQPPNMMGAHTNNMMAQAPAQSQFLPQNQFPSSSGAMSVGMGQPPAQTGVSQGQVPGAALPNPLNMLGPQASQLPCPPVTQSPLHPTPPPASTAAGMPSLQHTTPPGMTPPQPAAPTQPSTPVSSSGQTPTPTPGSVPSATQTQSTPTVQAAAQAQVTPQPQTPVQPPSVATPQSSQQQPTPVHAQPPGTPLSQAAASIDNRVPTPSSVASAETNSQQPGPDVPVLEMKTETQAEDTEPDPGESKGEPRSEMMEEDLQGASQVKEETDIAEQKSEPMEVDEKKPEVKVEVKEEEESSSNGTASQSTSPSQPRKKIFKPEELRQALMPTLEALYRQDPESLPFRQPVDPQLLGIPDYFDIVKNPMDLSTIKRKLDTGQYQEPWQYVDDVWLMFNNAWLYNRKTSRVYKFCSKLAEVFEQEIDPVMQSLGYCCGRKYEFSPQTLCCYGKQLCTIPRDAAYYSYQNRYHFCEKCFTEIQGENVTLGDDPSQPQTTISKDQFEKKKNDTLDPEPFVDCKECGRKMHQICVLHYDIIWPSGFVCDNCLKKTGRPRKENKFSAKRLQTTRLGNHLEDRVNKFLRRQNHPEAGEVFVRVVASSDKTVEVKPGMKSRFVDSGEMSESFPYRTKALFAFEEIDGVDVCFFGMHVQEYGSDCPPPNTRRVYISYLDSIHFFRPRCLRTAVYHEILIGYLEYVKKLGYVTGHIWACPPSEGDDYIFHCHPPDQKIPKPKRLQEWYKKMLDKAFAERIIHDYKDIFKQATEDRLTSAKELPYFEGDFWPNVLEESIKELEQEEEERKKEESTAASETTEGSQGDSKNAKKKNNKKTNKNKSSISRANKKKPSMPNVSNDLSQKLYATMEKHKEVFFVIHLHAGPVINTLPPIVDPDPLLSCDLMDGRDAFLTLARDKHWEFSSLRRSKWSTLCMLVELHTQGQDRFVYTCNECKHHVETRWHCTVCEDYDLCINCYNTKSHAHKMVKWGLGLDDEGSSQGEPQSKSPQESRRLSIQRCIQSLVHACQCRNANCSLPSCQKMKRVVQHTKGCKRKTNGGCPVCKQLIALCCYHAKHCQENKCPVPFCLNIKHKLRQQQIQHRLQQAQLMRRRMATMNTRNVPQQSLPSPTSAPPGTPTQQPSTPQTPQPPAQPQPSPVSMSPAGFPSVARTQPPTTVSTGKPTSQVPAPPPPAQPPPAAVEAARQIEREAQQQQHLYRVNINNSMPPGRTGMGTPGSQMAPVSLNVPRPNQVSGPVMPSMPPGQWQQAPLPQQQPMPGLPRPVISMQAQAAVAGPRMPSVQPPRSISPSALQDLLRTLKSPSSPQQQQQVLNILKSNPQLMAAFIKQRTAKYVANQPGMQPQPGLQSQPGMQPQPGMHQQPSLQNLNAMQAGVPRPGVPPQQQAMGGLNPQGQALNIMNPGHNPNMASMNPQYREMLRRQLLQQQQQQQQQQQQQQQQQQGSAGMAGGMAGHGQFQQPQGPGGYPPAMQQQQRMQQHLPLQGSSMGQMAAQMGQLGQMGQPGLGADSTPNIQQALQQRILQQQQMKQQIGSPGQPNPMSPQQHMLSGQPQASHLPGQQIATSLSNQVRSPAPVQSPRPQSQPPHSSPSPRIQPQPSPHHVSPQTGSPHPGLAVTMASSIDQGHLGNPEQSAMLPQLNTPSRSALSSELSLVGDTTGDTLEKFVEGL

SMILES	α-SMA expression by fluorescent microscopy ([1]; TGF-β 5 ng/ml plus compound 0.01 μM, FIG. 6)	TGF-β-induced alpha smooth muscle actin (α-SMA) formation / EMT ([1]; TGF-β 5 ng/ml, increasing concentrations 0.01, 0.05, 0.1, 0.5 μM, FIG. 5)	lung fibrosis by histological examination ([2]; Example 1, 5 mg/kg, days 14-28, FIG. 2C)	lung fibrosis (Ashcroft score) ([2]; Example 1, 5 mg/kg/day s.c. osmotic pump, days 15-28 (days 14-28), FIG. 1A, vs bleomycin alone)	collagen deposition (SIRCOL collagen assay, left lung) ([2]; Example 1, 5 mg/kg/day, days 15-28 (days 14-28), FIG. 1B, vs bleomycin alone)	antifibrotic effect, early (inflammatory) phase treatment ([2]; Example 2, 1 mg/kg/day, Days 1-14 (early), FIG. 3, vs no test compound)	antifibrotic effect, late (fibrotic) phase treatment ([2]; Example 2, 1 mg/kg/day, Days 15-28 (late), FIG. 3)	late phase treatment compared with treatment throughout the entire period ([2]; Example 2, 1 mg/kg/day, Days 15-28 vs Days 1-28 (whole), FIG. 3)	antifibrotic effect in six-week course of BLM-induced fibrosis [2]	bleomycin-induced lung fibrosis ([3]; 5 mg/kg per day, mice)	β-catenin signaling ([3]; 5 mg/kg per day, mice)	fibrosis, administration concurrent with bleomycin ([3]; concurrent administration)	established fibrosis, late administration ([3]; late administration)	survival, late administration ([3]; late administration)	selectivity β-catenin/CBP vs β-catenin/p300 interaction [4]
C[C@H]1[C@H]2N(C(=O)CN(C)N2C(=O)NCc2ccccc2)[C@@H](Cc2ccc(O)cc2)C(=O)N1Cc1cccc2cccnc12 [Compound C, (6S,9S,9aS)—N-benzyl-6-(4-hydroxybenzyl)-2,9-dimethyl-4,7-dioxo-8-(quinolin-8-ylmethyl)octahydro-1H-pyrazino[2,1-c][1,2,4]triazine-1-carboxamide]	decreased alpha smooth muscle actin (α-SMA) expression	inhibit TGF-β-induced alpha smooth muscle actin (α-SMA) formation	–	–	–	–	–	–	–	–	–	–	–	–	–
C[C@H]1[C@H]2N(C(=O)CN(C)N2C(=O)NCc2ccccc2)[C@@H](Cc2ccc(OP(=O)(O)O)cc2)C(=O)N1Cc1cccc2cccnc12 [Compound A, 4-(((6S,9S,9aS)-1-(benzylcarbamoyl)-2,9-dimethyl-4,7-dioxo-8-(quinolin-8-ylmethyl)octahydro-1H-pyrazino[2,1-c][1,2,4]triazin-6-yl)methyl)phenyl dihydrogen phosphate]	–	–	reduces lung fibrosis	reduces lung fibrosis	reduced	not significantly beneficial	significantly reduced lung fibrosis	equal to, or even superior to	has an antifibrotic effect	–	–	–	–	–	–
O=C1[C@H](Cc2ccc(O)cc2)N2C(=O)CCN(C(=O)NCc3ccccc3)[C@H]2CN1Cc1cccc2ccccc12 [ICG-001]	–	–	–	–	–	–	–	–	antifibrotic effect, unlike β-catenin inhibitor ICG-001	attenuates bleomycin-induced lung fibrosis	significantly inhibits β-catenin signaling	prevents fibrosis	reverse established fibrosis	significantly improve survival	selectively blocks the β-catenin/CBP interaction without interfering with the β-catenin/p300 interaction
